IC50 data for 11 compounds are collected here from US9115127B2 (AMGEN INC., priority 2010, dated 2015).

Where only a bound is given, the exact number is not on record here.

T1 sequence (Q9UM73 1058-1620): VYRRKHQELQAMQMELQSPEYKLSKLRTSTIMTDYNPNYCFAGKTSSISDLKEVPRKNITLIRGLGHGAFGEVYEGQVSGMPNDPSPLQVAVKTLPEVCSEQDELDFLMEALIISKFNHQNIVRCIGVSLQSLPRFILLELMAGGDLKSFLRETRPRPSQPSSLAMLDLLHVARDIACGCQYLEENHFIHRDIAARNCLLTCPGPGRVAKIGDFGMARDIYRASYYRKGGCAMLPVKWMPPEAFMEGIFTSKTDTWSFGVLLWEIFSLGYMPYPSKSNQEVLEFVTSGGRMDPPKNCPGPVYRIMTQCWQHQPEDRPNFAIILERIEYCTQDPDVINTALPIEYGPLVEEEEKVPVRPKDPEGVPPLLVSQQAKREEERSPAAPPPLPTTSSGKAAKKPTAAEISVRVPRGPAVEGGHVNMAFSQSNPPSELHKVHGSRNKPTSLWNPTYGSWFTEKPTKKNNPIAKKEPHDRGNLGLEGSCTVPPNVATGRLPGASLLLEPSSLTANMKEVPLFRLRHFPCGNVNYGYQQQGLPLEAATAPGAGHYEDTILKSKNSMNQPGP

The assay has as its target T1, wild-type human ALK (cytoplasmic domain, amino acids 1058-1620, N-terminal GST fusion) (Homo sapiens, UniProt Q9UM73).
T1 construct: The cytoplasmic domain (amino acids 1058-1620) of wild-type human ALK; GST (N); made in house; host or cells: SF9 insect cells
Briefly: ALK Inhibition in Enzyme Assay (Lance TR-FRET kinase assay). It is filed as biochemical. The method in brief:
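Purified enzyme phosphorylated a biotinylated peptide substrate for 90 minutes at room temperature. Reactions were stopped with 20 mM EDTA in 50 mM Tris (pH 7.5), 100 mM NaCl, 0.05% BSA, 0.1% Tween-20. Phosphopeptide was detected by TR-FRET with SA-APC and Eu-W1024 anti-phosphotyrosine antibody PT66, excitation 320 nm.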
A general note: In TR-FRET formats the signal depends on donor and acceptor labels being close together.
The term IC50 denotes the point on the concentration scale where inhibition reaches its midpoint. Read a high IC50 as weaker potency in that assay. For `CCOC(=O)[C@H]1CC[C@@H](n2/c(=N/C(=O)c3ccc(F)cc3)[nH]c3ccc(CN4CCCCC4)cc32)CC1` [Example 8, cis-Ethyl 4-((E)-2-(4-fluorobenzoylimino)-6-(piperidin-1-ylmethyl)-2,3-dihydro-1H-benzo[d]imidazol-1-yl)cyclohexanecarboxylate], the IC50 was less than 50 nM.
With `COc1ccc(C(=O)/N=c2\[nH]c3cnc(OCCN4CCCCC4)cc3n2[C@H]2CC[C@@H](C(=O)NC(C)C)CC2)cc1` [Example 100, (E)-N-(1-(cis-4-(Isopropylcarbamoyl)cyclohexyl)-6-(2-(piperidin-1-yl)ethoxy)-1H-imidazo[4,5-c]pyridin-2(3H)-ylidene)-4-methoxybenzamide], the IC50 is 50 to 100 nM.
The compound `O=C(/N=c1\[nH]c2ccc(CN3CCOCC3)cc2n1[C@H]1CC[C@@H](C(=O)N2CCOCC2)CC1)c1ccc(F)cc1` [Example 202, (E)-4-Fluoro-N-(1-(cis-4-(morpholine-4-carbonyl)cyclohexyl)-6-(morpholinomethyl)-1H-benzo[d]imidazol-2(3H)-ylidene)benzamide] registered an IC50 of 100 to 1000 nM.
`C=CCNS(=O)(=O)c1cccc(C(=O)/N=c2\[nH]c3ccc(CN4CCC(C(C)(C)O)CC4)cc3n2[C@H]2CC[C@@H](C(N)=O)CC2)c1` [Example 232, (E)-3-(N-Allylsulfamoyl)-N-(1-(cis-4-carbamoylcyclohexyl)-6-((4-(2-hydroxypropan-2-yl)piperidin-1-yl)methyl)-1H-benzo[d]imidazol-2(3H)-ylidene)benzamide] displayed an IC50 of less than 50 nM.
Regarding `CCNC(=O)[C@H]1CC[C@@H](n2/c(=N/C(=O)c3ccc(F)cc3)[nH]c3ccc(CN4CCCCC4)cc32)CC1` [Example 11, (E)-N-(1-(cis-4-(Ethylcarbamoyl)cyclohexyl)-6-(piperidin-1-ylmethyl)-1H-benzo[d]imidazol-2(3H)-ylidene)-4-fluorobenzamide], the half-inhibitory concentration (IC50) was less than 50 nM.
For the compound `CC(C)NC(=O)[C@H]1CC[C@@H](n2/c(=N/C(=O)c3ccc(C#N)cc3)[nH]c3cnc(OCCO)cc32)CC1` [Example 126, (E)-4-Cyano-N-(6-(2-hydroxyethoxy)-1-(cis-4-(isopropylcarbamoyl)cyclohexyl)-1H-imidazo[4,5-c]pyridin-2(3H)-ylidene)benzamide], the half-inhibitory concentration (IC50) is less than 50 nM.
As for `CC(C)NC(=O)[C@H]1CC[C@@H](n2/c(=N/C(=O)c3ccc(F)cc3)[nH]c3cnc(N4CCS(=O)(=O)CC4)cc32)CC1` [Example 223, N-((2E)-6-(1,1-Dioxido-4-thiomorpholinyl)-1-(cis-4-((1-methylethyl)carbamoyl)cyclohexyl)-1,3-dihydro-2H-imidazo[4,5-c]pyridin-2-ylidene)-4-fluorobenzamide], the half-maximal inhibitory concentration (IC50) was less than 50 nM.
Consider `C=CCNS(=O)(=O)c1cccc(C(=O)/N=c2\[nH]c3cnc(OCCN4CCCCC4)cc3n2[C@H]2CC[C@H](C(N)=O)CC2)c1` [Example 244, (E)-3-(N-Allylsulfamoyl)-N-(1-(trans-4-carbamoylcyclohexyl)-6-(2-(piperidin-1-yl)ethoxy)-1H-imidazo[4,5-c]pyridin-2(3H)-ylidene)benzamide], for which the IC50 fell in the range of 50 to 100 nM.
In turn, `CC(C)NC(=O)[C@H]1CC[C@@H](n2/c(=N/C(=O)c3ccc(F)cc3)[nH]c3ccc(CN4CCC(F)(F)C4)cc32)CC1` [Example 196, (E)-N-(6-((3,3-Difluoropyrrolidin-1-yl)methyl)-1-(cis-4-(isopropylcarbamoyl)cyclohexyl)-1H-benzo[d]imidazol-2(3H)-ylidene)-4-fluorobenzamide] returned an IC50 of less than 50 nM.
The result for `CC(C)(O)C1CCN(Cc2ccc3[nH]/c(=N\C(=O)c4ccc(F)cc4)n([C@H]4CC[C@@H](C(=O)NC5CNC5)CC4)c3c2)CC1` [Example 243] reads less than 50 nM.
The result for `CC(C)NC(=O)[C@H]1CC[C@@H](n2/c(=N/C(=O)c3ccc(F)cc3)[nH]c3ccc(CN4CCOCC4)cc32)CC1` [Example 41, (E)-4-Fluoro-N-(1-(cis-4-(isopropylcarbamoyl)cyclohexyl)-6-(morpholinomethyl)-1H-benzo[d]imidazol-2(3H)-ylidene)benzamide] reads less than 50 nM.
